Assay [1] addresses T1, SPT (SPT2-expressing membrane fraction: human SPT1, human SPT2 and human ssSPTa) (Homo sapiens, UniProt O15269+O15270).
T1 construct: Full-length human SPT1, human SPT2 and human ssSPTa used; made in house; host or cells: FreeStyle 293 cells (pcDNA3.1 vectors, cotransfection); crude membrane fraction used
T1 sequence (O15269 1-473): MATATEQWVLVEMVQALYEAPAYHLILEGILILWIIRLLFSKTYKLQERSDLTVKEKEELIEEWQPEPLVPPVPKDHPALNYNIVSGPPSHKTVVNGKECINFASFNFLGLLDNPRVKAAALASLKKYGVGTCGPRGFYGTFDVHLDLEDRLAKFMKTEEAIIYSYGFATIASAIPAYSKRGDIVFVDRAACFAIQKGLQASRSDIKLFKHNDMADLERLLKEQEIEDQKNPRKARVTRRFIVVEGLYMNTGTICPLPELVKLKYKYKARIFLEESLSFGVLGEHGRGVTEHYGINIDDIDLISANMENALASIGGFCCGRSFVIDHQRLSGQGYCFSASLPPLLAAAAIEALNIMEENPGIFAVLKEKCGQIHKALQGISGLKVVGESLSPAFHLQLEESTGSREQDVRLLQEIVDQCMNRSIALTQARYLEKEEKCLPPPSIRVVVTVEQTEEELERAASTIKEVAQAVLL
T1 sequence (O15270 1-562): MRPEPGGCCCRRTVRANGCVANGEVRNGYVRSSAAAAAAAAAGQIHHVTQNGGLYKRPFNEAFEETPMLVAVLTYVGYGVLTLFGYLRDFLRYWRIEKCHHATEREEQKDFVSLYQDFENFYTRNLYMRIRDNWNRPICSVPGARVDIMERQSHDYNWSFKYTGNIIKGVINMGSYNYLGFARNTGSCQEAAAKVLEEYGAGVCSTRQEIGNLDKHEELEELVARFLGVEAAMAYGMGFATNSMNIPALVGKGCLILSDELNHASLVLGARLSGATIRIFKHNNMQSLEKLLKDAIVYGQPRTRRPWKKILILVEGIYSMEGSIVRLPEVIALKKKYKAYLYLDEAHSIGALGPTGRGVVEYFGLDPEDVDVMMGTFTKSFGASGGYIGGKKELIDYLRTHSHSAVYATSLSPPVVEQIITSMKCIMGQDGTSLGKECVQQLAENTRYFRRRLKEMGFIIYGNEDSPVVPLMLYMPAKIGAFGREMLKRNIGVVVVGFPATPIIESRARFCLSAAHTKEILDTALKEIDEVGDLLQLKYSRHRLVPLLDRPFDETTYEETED
T1 sequence (Q969W0 1-71 partner): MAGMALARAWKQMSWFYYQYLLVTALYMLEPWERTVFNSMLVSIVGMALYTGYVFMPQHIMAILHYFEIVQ
The experiment in a line: SPT enzyme inhibition test (Test Example 1). The assay is classed as biochemical. Conditions: for inhibition at 1 µM: read-out: Rate of inhibition (%) at 1 μM. The procedure:
After culture for 3 days, the cells were recovered and frozen at −80° C. to obtain expressing cells. The frozen cells were suspended in a 50 mM Hepes buffer (pH 7.5) containing 250 mM sucrose, 5 mM ethylenediaminetetraacetic acid (EDTA), 5 mM dithiothreitol (DTT) and Complete, EDTA-free (Roche Applied Science, Penzberg, Upper Bavaria, Germany). The cells were disrupted (on ice, 20,000 rpm, 20 sec×2) using POLYTORON (Central Scientific Commerce, Inc.). After centrifugation at 2000 rpm (850×g) for 10 minutes, the supernatant was recovered. Subsequently, the supernatant was centrifuged at 40,000 rpm (186,010×g) for 60 minutes, and the supernatant was discarded. The pellets were suspended in a 50 mM Hepes buffer (pH 7.5) containing 5 mM EDTA, 5 mM DTT and Complete, EDTA-free, passed through a 40-μm cell strainer and stored at −80° C. The resultant was used as a SPT2-expressing membrane fraction. The protein concentration was determined using CBB Protein Assay with bovine serum albumin used as standards.
5 μL of each test compound was mixed with 10 μL of the 100 μg/mL SPT2-expressing membrane fraction using an assay buffer (100 mM Hepes (pH 8.0) containing 2.5 mM EDTA, 5 mM DTT and 0.01% fatty acid-free bovine serum albumin), and the mixture was left standing at room temperature for 60 minutes. Subsequently, 5 μL of a substrate solution containing 2 mM L-serine and 20 μM palmitoyl CoA was added thereto, and an enzyme reaction was carried out in a 384-well plate using 20 μL in total of the reaction system. After reaction at room temperature for 15 minutes, the reaction was terminated by the addition of 20 μL of a 2% aqueous formic acid solution. Subsequently, 40 μL of acetonitrile containing 600 nM C17-sphinganine (Avanti Polar Lipids, Inc., Alabaster, Ala., U.S.) was added thereto as an internal standard. The reaction sample was subjected to on-line solid-layer extraction using RapidFire 300 (Agilent Technologies Inc., Santa Clara, Calif., U.S.). […] Mass chromatograms were obtained using Analyst software (version 1.5.0, AB SCIEX). Their mass chromatogram areas were respectively calculated, and the rate of inhibition (%) by the test compound was calculated using an area ratio (the value of the reaction product was divided by the value of the internal standard).

Assay [2] has as its system lung adenocarcinoma cell line HCC4006. Nature of the assay: HCC4006 cell growth inhibition test (Test Example 2). The assay is classed as cell-based. Conditions: HCC4006 cells, culture for 5 days, CellTiter-Glo; for inhibition at 1 µM: read-out: Rate of inhibition (%) at 1 μM. The procedure: A lung adenocarcinoma cell line HCC4006 (ATCC) was cultured using an RPMI-1640 medium (Wako Pure Chemical Industries, Ltd.) containing 10% fetal bovine serum and penicillin/streptomycin. 250 cells per well were inoculated into 40 μL of a medium in a 384-well culture plate. On the next day, 10 μL of each test compound was added to the cells. After culture for 5 days, the medium was discarded, and 30 μL of CellTiter-Glo Luminescent Cell Viability Assay solution (Promega Corp., Fitchburg, Wis., U.S.) was added to each well. Light emission signals were measured using EnVision (PerkinElmer, Inc., Waltham, Mass., U.S.).
The rate of inhibition (%) by the test compound was calculated according to the following expression: Rate of inhibition (%)=(1−(Count of the test compound−Blank)/(Control−Blank))×100
In the above expression, a count under compound non-addition conditions was indicated as a control, and a count under cell-free conditions was indicated as a blank.
Background: Cellular ATP, detected with luciferase, serves as a proxy for viable cell number.

The mark [3] stands for this setting: Homo sapiens, 120 h, 1 μM test compound.

A word on the inhibition: it is the change of the read-out against control, counted positive when it falls.

For the molecule `COc1ccc(C(=O)N2CC[C@H](NC(=O)c3ccccc3Cl)[C@H](c3ccc(F)cc3)C2)cc1OC` (relative stereo) [Example 114B, 2-chloro-N-(cis-1-(3,4-dimethoxybenzoyl)-3-(4-fluorophenyl)piperidin-4-yl)benzamide], the inhibition at 1 µM in assay [1] stood at 99%; in assay [2] (setting [3]) it was 56%.

Take `COc1ccc(C(=O)N2CCC(NC(=O)c3ccccc3Cl)c3cn(C)nc32)cc1OC` (stereo not drawn) [Example 3A, 2-Chloro-N-(7-(3,4-dimethoxybenzoyl)-2-methyl-4,5,6,7-tetrahydro-2H-pyrazolo[3,4-b]pyridin-4-yl)benzamide]: the inhibition at 1 µM in assay [1] turned out to be 98%; in assay [2] (setting [3]), 41%. Regarding `Cc1cc(C(=O)N[C@@H]2CCN(C(=O)c3cc(Cl)c4nccnc4c3)C[C@@H]2c2ccccc2)n(C)n1` [Example 23B, N-((3S,4R)-1-((8-Chloroquinoxalin-6-yl)carbonyl)-3-phenylpiperidin-4-yl)-1,3-dimethyl-1H-pyrazole-5-carboxamide], the inhibition at 1 µM in assay [1] is 101%; in assay [2] (setting [3]), 53%. With `CN(C)CCOc1ccc(C(=O)N[C@@H]2CCN(C(=O)c3cc(Cl)c4nccnc4c3)C[C@@H]2c2ccccc2)cn1` [Example 25B, N-((3S,4R)-1-((8-chloroquinoxalin-6-yl)carbonyl)-3-phenylpiperidin-4-yl)-6-(2-(dimethylamino)ethoxy) nicotinamide], the “Rate of inhibition (%) at 1 μM” value in assay [1] (1 μM test compound, SPT2-expressing membrane fraction) is reported as 100%; in assay [2] (1 μM test compound), 53%.

As to `O=C(N[C@@H]1CCN(C(=O)c2cc(Cl)c3nccnc3c2)C[C@@H]1c1ccccc1)c1ncccc1OC(F)F` [Example 31B, N-((3S,4R)-1-((8-Chloroquinoxalin-6-yl)carbonyl)-3-phenylpiperidin-4-yl)-3-(difluoromethoxy)pyridine-2-carboxamide], the inhibition at 1 µM in assay [1] worked out at 102%; in assay [2] (setting [3]), 57%.

As to `Cc1cc(NC(=O)C2CC2)sc1C(=O)N1CC[C@@H](NC(=O)c2ccccc2OC(F)(F)F)[C@@H](c2ccccc2)C1` [Example 35B, N-((3S,4R)-1-((5-((cyclopropylcarbonyl)amino)-3-methyl-2-thienyl)carbonyl)-3-phenylpiperidin-4-yl)-2-(trifluoromethoxy)benzamide], the inhibition at 1 µM in assay [1] turned out to be 101%; in assay [2] (setting [3]), 40%. With `CN(C)CCOc1cc(C(F)(F)F)c(C(=O)N[C@@H]2CCN(C(=O)c3cc(Cl)c4nccnc4c3)C[C@@H]2c2ccccc2)cn1` [Example 38B, N-((3S,4R)-1-((8-chloroquinoxalin-6-yl)carbonyl)-3-phenylpiperidin-4-yl)-6-(2-(dimethylamino)ethoxy)-4-(trifluoromethyl)nicotinamide], the inhibition at 1 µM was 101% in assay [1] and 46% in assay [2] (setting [3]).

For `COc1ccc(C(=O)N2CC[C@@H](NC(=O)c3ncccc3C(F)(F)F)[C@@H](c3ccccc3)C2)nc1OC` [Example 44B, N-((3S,4R)-1-((5,6-dimethoxypyridin-2-yl)carbonyl)-3-phenylpiperidin-4-yl)-3-(trifluoromethyl)pyridine-2-carboxamide], the inhibition at 1 µM was found to be 98% in assay [1] and 47% in assay [2] (setting [3]). For the molecule `O=C(N[C@@H]1CCN(C(=O)c2ccc3nccnc3c2)C[C@@H]1c1ccccc1)c1ccccc1OC(F)(F)F` [Example 57B, N-((3S,4R)-3-phenyl-1-(quinoxalin-6-ylcarbonyl)piperidin-4-yl)-2-(trifluoromethoxy) benzamide], the inhibition at 1 µM in assay [1] came to 96%; in assay [2] (setting [3]), 54%. On the same counts, the results for `Cc1cc(C(=O)N[C@@H]2CCN(C(=O)c3cc(Cl)c4nccnc4c3)C[C@@H]2c2ccc(F)cc2)n(C)n1` [Example 58B, N-((3S,4R)-1-((8-chloroquinoxalin-6-yl)carbonyl)-3-(4-fluorophenyl)piperidin-4-yl)-1,3-dimethyl-1H-pyrazole-5-carboxamide] are 101% and 49%. For the molecule `Cc1nn(C)c(Cl)c1C(=O)N[C@@H]1CCN(C(=O)c2cc(Cl)c3nccnc3c2)C[C@@H]1c1ccc(F)cc1` [Example 59B, 5-Chloro-N-((3S,4R)-1-((8-chloroquinoxalin-6-yl)carbonyl)-3-(4-fluorophenyl)piperidin-4-yl)-1,3-dimethyl-1H-pyrazole-4-carboxamide], the inhibition at 1 µM in assay [1] was found to be 101%. Besides, the inhibition at 0.3 µM in assay [2] (Homo sapiens, 120 h, 0.3 μM test compound, read-out: Rate of inhibition at 0.3 μM) amounted to 53%.

Turning to `COc1cc(C(=O)N2CC[C@@H](NC(=O)c3ncccc3C(F)(F)F)[C@@H](c3ccccc3)C2)cnc1OC` [Example 64B, N-((3S,4R)-1-((5,6-dimethoxypyridin-3-yl)carbonyl)-3-phenylpiperidin-4-yl)-3-(trifluoromethyl)pyridine-2-carboxamide], the inhibition at 1 µM turned out to be 100% in assay [1] and 49% in assay [2] (setting [3]). In the case of `COc1ccc(C(=O)N2CC[C@H](NC(=O)c3ccccc3Cl)c3c2cnn3C(C)C)cc1OC` [Example 74A, 2-Chloro-N-((7S)-4-(3,4-dimethoxybenzoyl)-1-isopropyl-4,5,6,7-tetrahydro-1H-pyrazolo[4,3-b]pyridin-7-yl)benzamide], in assay [2] (setting [3]), the inhibition at 1 µM was determined as 51%. As to `COc1cc(C(=O)N2CCC(NC(=O)c3ccccc3OC(F)(F)F)c3c2cnn3C(C)C)cnc1OC` (stereo not drawn) [Example 132A, N-(4-((5,6-Dimethoxypyridin-3-yl)carbonyl)-1-isopropyl-4,5,6,7-tetrahydro-1H-pyrazolo[4,3-b]pyridin-7-yl)-2-(trifluoromethoxy)benzamide], the inhibition at 1 µM in assay [2] (setting [3]) is 52%.

On to `COc1ccc(C(=O)N2CCC(NC(=O)c3ccccc3Cl)c3ccc(Cl)cc32)cc1OC` (stereo not drawn) [Example 201A, 2-Chloro-N-(7-chloro-1-(3,4-dimethoxybenzoyl)-1,2,3,4-tetrahydroquinolin-4-yl)benzamide], for which, in assay [2] (setting [3]), the inhibition at 1 µM was determined as 40%.

Source of the values: US10189785B2, “Heterocyclic compound” (TAKEDA PHARMACEUTICAL COMPANY LIMITED, priority 2015, dated 2019).
